Measured values as given in patent US7045343B2, “Sterilization indicator test packs” (3M Innovative Properties Company, priority 1998, dated 2006).

Test system: enzyme associated with Bacillus stearothermophilus spores
Test: Rapid enzyme fluorescence readout of indicators after hydrogen peroxide plasma sterilization
Type: biochemical
Conditions: for FLUORESCENCE - PERCENT POSITIVE 1 HR / FLUORESCENCE - PERCENT POSITIVE 2 HR / FLUORESCENCE - PERCENT POSITIVE 3 HR / FLUORESCENCE - PERCENT POSITIVE 4 HR / FLUORESCENCE - PERCENT POSITIVE 5 HR: 1–22 min diffusion
Outline: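 Indicators with a TYVEK closure held spores coated with various chemicals and were exposed to hydrogen peroxide plasma at 45–55 °C: 6–7 mg/ml chamber peroxide, diffusing 1–22 min at 6–10 Torr. Enzyme fluorescence was read hourly for 5 h at 60 °C. Growth was scored visually as a purple-to-yellow change after 168 h.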

Q: What does the source list for Decaglyceryl Decaoleate?
A: accuracy of sterilization indicators compared to indicators made with untreated spores (1–3 hours after exposure): improved; accuracy of sterilization indicators compared to indicators made with untreated spores (2–3 hours after exposure): improved; accuracy of sterilization indicators compared to indicators made with untreated spores (2–3 hours after exposure, concentrations of 5–100 mg/ml): improved; FLUORESCENCE - PERCENT POSITIVE 1 HR (Example 6, 10 mg/ml coating): 83.7%; FLUORESCENCE - PERCENT POSITIVE 2 HR (Example 6, 10 mg/ml coating): 100%; FLUORESCENCE - PERCENT POSITIVE 3 HR (Example 6, 10 mg/ml coating): 100%; FLUORESCENCE - PERCENT POSITIVE 4 HR (Example 6, 10 mg/ml coating): 100%; FLUORESCENCE - PERCENT POSITIVE 5 HR (Example 6, 10 mg/ml coating): 100%; FLUORESCENCE - PERCENT POSITIVE 1 HR (Example 7, 10 mg/ml coating): 83.7%; FLUORESCENCE - PERCENT POSITIVE 2 HR (Example 7, 10 mg/ml coating): 100%; FLUORESCENCE - PERCENT POSITIVE 3 HR (Example 7, 10 mg/ml coating): 100%; FLUORESCENCE - PERCENT POSITIVE 4 HR (Example 7, 10 mg/ml coating): 100%; FLUORESCENCE - PERCENT POSITIVE 5 HR (Example 7, 10 mg/ml coating): 100%; FLUORESCENCE - PERCENT POSITIVE 1 HR (Example 9, 5 mg/ml coating): 65.7%; FLUORESCENCE - PERCENT POSITIVE 2 HR (Example 9, 5 mg/ml coating): 100%; FLUORESCENCE - PERCENT POSITIVE 3 HR (Example 9, 5 mg/ml coating): 100%; FLUORESCENCE - PERCENT POSITIVE 4 HR (Example 9, 5 mg/ml coating): 100%; FLUORESCENCE - PERCENT POSITIVE 5 HR (Example 9, 5 mg/ml coating): 100%; FLUORESCENCE - PERCENT POSITIVE 1 HR (Example 9, 7.5 mg/ml coating): 83.5%; FLUORESCENCE - PERCENT POSITIVE 2 HR (Example 9, 7.5 mg/ml coating): 100%; FLUORESCENCE - PERCENT POSITIVE 3 HR (Example 9, 7.5 mg/ml coating): 100%; FLUORESCENCE - PERCENT POSITIVE 4 HR (Example 9, 7.5 mg/ml coating): 100%; FLUORESCENCE - PERCENT POSITIVE 5 HR (Example 9, 7.5 mg/ml coating): 100%; FLUORESCENCE - PERCENT POSITIVE 1 HR (Example 9, 10 mg/ml coating): 83.7%; FLUORESCENCE - PERCENT POSITIVE 2 HR (Example 9, 10 mg/ml coating): 100%; FLUORESCENCE - PERCENT POSITIVE 3 HR (Example 9, 10 mg/ml coating): 100%; FLUORESCENCE - PERCENT POSITIVE 4 HR (Example 9, 10 mg/ml coating): 100%; FLUORESCENCE - PERCENT POSITIVE 5 HR (Example 9, 10 mg/ml coating): 100%; FLUORESCENCE - PERCENT POSITIVE 1 HR (Example 9, 50 mg/ml coating): 85.0%; FLUORESCENCE - PERCENT POSITIVE 2 HR (Example 9, 50 mg/ml coating): 90.2%; FLUORESCENCE - PERCENT POSITIVE 3 HR (Example 9, 50 mg/ml coating): 100%; FLUORESCENCE - PERCENT POSITIVE 4 HR (Example 9, 50 mg/ml coating): 100%; FLUORESCENCE - PERCENT POSITIVE 5 HR (Example 9, 50 mg/ml coating): 100%; FLUORESCENCE - PERCENT POSITIVE 1 HR (Example 9, 100 mg/ml coating): 73.3%; FLUORESCENCE - PERCENT POSITIVE 2 HR (Example 9, 100 mg/ml coating): 86.7%; FLUORESCENCE - PERCENT POSITIVE 3 HR (Example 9, 100 mg/ml coating): 100%; FLUORESCENCE - PERCENT POSITIVE 4 HR (Example 9, 100 mg/ml coating): 100%; FLUORESCENCE - PERCENT POSITIVE 5 HR (Example 9, 100 mg/ml coating): 100%

Q: Decaglyceryl Monostearate was tested. Which “FLUORESCENCE - PERCENT POSITIVE 1 HR” value (Example 7, 50 mg/ml coating) did it give?
A: 64.4%

Q: And the “FLUORESCENCE - PERCENT POSITIVE 2 HR” value (Example 7, 50 mg/ml coating)?
A: 83.0%

Q: What about the “FLUORESCENCE - PERCENT POSITIVE 3 HR” value (Example 7, 50 mg/ml coating) of the same substance?
A: 89.8%

Q: What about the “FLUORESCENCE - PERCENT POSITIVE 4 HR” value (Example 7, 50 mg/ml coating) of the same substance?
A: 91.3%

Q: What about the “FLUORESCENCE - PERCENT POSITIVE 5 HR” value (Example 7, 50 mg/ml coating) of the same substance?
A: 91.3%
